What all share (test): standard MIC synergy test with amoxycillin
Assay type in all cases: cell-based
Holding throughout (settings): amoxycillin alone, β-Lactamase Inhibitor: None

In assay [1] the test system is Proteus C889. An excerpt: (§1) In a standard MIC synergy test, the following data were obtained for the compounds of this invention:-
Assay [2] has as its system Kleb. E70.
Text: as §1

The subject of assay [3] is E. coli JT39.
Text: as §1

Here are results for one compound from EP0068715A1, “Beta-lactam antibacterial agents, their preparation and use” (BEECHAM GROUP PLC, priority 1981, dated 1983).

In the case of `CC1(C)S[C@@H]2[C@H](NC(=O)[C@H](N)c3ccc(O)cc3)C(=O)N2[C@H]1C(=O)O` [amoxycillin], the “MIC of amoxycillin (μg/ml) Proteus C889” value in assay [1] is above 2000 µg/mL. In addition, the “MIC of amoxycillin (μg/ml) Kleb. E70” value in assay [2] worked out at 500 µg/mL. For the same compound, the “MIC of amoxycillin (μg/ml) E. coli JT39” value in assay [3] is 2000 µg/mL.
